# Molecular target: recombinant human SYK (GST-hSYK fusion protein) (Homo sapiens, UniProt P43405)
# Assay: biochemical
# Description: Homogeneous Time-Resolved Fluorescence (HTRF) Assay for the Recombinant Human SYK Enzyme:
SMILES,"IC50 (RHSYK Activity, Table 54A) [nM]",other results
Cc1cc(Nc2nccc(C(F)(F)F)n2)cc(-c2cnc(C3=CC(=O)CC3)s2)c1 [Example 36A-6],–,"IC50 (rhSYK Activity, Table 36A): < 100 nM"
Cc1cc(Nc2nccc(C(F)(F)F)n2)cc(-c2cnc(C3=CC(=O)CCC3)s2)c1 [Example 36A-7],–,"IC50 (rhSYK Activity, Table 36A): < 100 nM"
Cc1cc(Nc2nccc(C(F)(F)F)n2)cc(-c2cnc(C3=CC(=O)CCCC3)s2)c1 [Example 36A-9],–,"IC50 (rhSYK Activity, Table 36A): < 100 nM"
COC(=O)C1CCC(c2ncc(-c3cc(C)cc(Nc4nccc(C(F)(F)F)n4)c3)s2)=CC1(C)C (stereo not shown) [Example 36A-11],–,"IC50 (rhSYK Activity, Table 36A): 100 to 1000 nM"
COC(=O)C1CC=C(c2ncc(-c3cc(C)cc(Nc4nccc(C(F)(F)F)n4)c3)s2)CC1(C)C (stereo not shown) [Example 36A-13],–,"IC50 (rhSYK Activity, Table 36A): 100 to 1000 nM"
Cc1cc(Nc2nccc(C(F)(F)F)n2)cc(-c2cnc(C3CCNC(=O)C3)s2)c1 (stereo not shown) [Example 36B-1],–,"IC50 (rhSYK Activity, Table 36B): < 100 nM"
Cc1cc(Nc2nccc(C(F)(F)F)n2)cc(-c2cnc(C3=CCNC(=O)CC3)s2)c1 [Example 36B-2],–,"IC50 (rhSYK Activity, Table 36B): < 100 nM"
Cc1cc(Nc2nccc(C(F)(F)F)n2)cc(-c2cnc(C3CCCNC(=O)C3)s2)c1 (stereo not shown) [Example 36B-3],–,"IC50 (rhSYK Activity, Table 36B): < 100 nM"
Cc1cc(Nc2nccc(C(F)(F)F)n2)cc(-c2cnc(C3CCNC(=O)CC3)s2)c1 (stereo not shown) [Example 36B-4],–,"IC50 (rhSYK Activity, Table 36B): < 100 nM"
[2H]C([2H])([2H])c1cc(Nc2nccc(C(F)(F)F)n2)cc(-c2cnc([C@]3(O)CC[C@H](C(=O)O)CC3)s2)c1 [Example 43-1],–,"IC50 (rhSYK Activity, table after Example 43): < 100 nM"
Cc1cc(Nc2nccc(C(F)(F)F)n2)cc(-c2cnc(C3(O)CCN(S(=O)(=O)C(C)C)CC3)s2)c1 [Example 54A-1],< 100,–
Cc1cc(Nc2nccc(C(F)(F)F)n2)cc(-c2cnc(C3(O)CCN(S(=O)(=O)C(F)(F)F)CC3)s2)c1 [Example 54A-2],< 100,–
Cc1cc(Nc2nccc(C(F)(F)F)n2)cc(-c2cnc(C3(O)CCN(S(=O)(=O)c4cn(C)cn4)CC3)s2)c1 [Example 54A-3],< 100,–
Cc1cc(Nc2nccc(C(F)(F)F)n2)cc(-c2cnc(C3(O)CCN(C(=O)c4cccnc4)CC3)s2)c1 [Example 54A-8],< 100,–
Cc1cc(Nc2nccc(C(F)(F)F)n2)cc(-c2cnc(C3(O)CCN(C(=O)c4ccccn4)CC3)s2)c1 [Example 54A-9],< 100,–
Cc1cc(Nc2nccc(C(F)(F)F)n2)cc(-c2cnc(C3(O)CCN(C(=O)CN4CCCC4=O)CC3)s2)c1 [Example 54A-10],< 100,–
Cc1cc(Nc2nccc(C(F)(F)F)n2)cc(-c2cnc(C3(O)CCN(C(=O)NC4CCCCC4)CC3)s2)c1 [Example 54A-12],< 100,–
CCCNC(=O)N1CCC(O)(c2ncc(-c3cc(C)cc(Nc4nccc(C(F)(F)F)n4)c3)s2)CC1 [Example 54A-14],< 100,–
COc1ccnc(Nc2cc(C)cc(-c3cnc(C4(O)CCN(C(=O)NC(=O)N(C)C)CC4)s3)c2)n1 [Example 54A-17],< 100,–
COc1ccnc(Nc2cc(C)cc(-c3cnc(C4(O)CCN(C(N)=O)CC4)s3)c2)n1 [Example 54A-19],< 100,–
COc1ccnc(Nc2cc(C)cc(-c3cnc(C4(O)CCNCC4)s3)c2)n1 [Example 54A-20],< 100,–
Cc1cc(Nc2nccc(C(F)(F)F)n2)cc(-c2cnc(C3(O)CCN(C(=O)CCC#N)CC3)s2)c1 [Example 54A-23],< 100,–
Cc1cc(Nc2nccc(C(F)(F)F)n2)cc(-c2cnc(C3(O)CCN(CC(F)(F)F)CC3)s2)c1 [Example 54A-24],< 100,–

# Further lines, with some results ahead:
"IC50 (RHSYK Activity, Table 54A) [nM]",SMILES,other results
< 100,CCC(=O)N1CCC(O)(c2ncc(-c3cc(C)cc(Nc4nccc(C(F)(F)F)n4)c3)s2)CC1 [Example 54A-4],–
< 100,Cc1cc(Nc2nccc(C(F)(F)F)n2)cc(-c2cnc(C3(O)CCN(C(=O)CO)CC3)s2)c1 [Example 54A-5],–
< 100,Cc1cc(Nc2nccc(C(F)(F)F)n2)cc(-c2cnc(C3(O)CCN(C(=O)CC#N)CC3)s2)c1 [Example 54A-6],–
< 100,Cc1cc(Nc2nccc(C(F)(F)F)n2)cc(-c2cnc(C3(O)CCN(C(=O)CN(C)C)CC3)s2)c1 [Example 54A-7],–
< 100,Cc1cc(Nc2nccc(C(F)(F)F)n2)cc(-c2cnc(C3(O)CCN(C(=O)C4CC4)CC3)s2)c1 [Example 54A-11],–
< 100,Cc1cc(Nc2nccc(C(F)(F)F)n2)cc(-c2cnc(C3(O)CCN(C(=O)NC(C)C)CC3)s2)c1 [Example 54A-13],–
< 100,Cc1cc(Nc2nccc(C(F)(F)F)n2)cc(-c2cnc(C3(O)CCN(C(=O)N(C)C)CC3)s2)c1 [Example 54A-15],–
< 100,Cc1cc(Nc2nccc(C(F)(F)F)n2)cc(-c2cnc(C3(O)CCN(C(=O)[C@@H](C)O)CC3)s2)c1 [Example 54A-21],–
< 100,Cc1cc(Nc2nccc(C(F)(F)F)n2)cc(-c2cnc(C3(O)CCN(C(=O)CCO)CC3)s2)c1 [Example 54A-22],–
< 100,Cc1cc(Nc2nccc(C(F)(F)F)n2)cc(-c2cnc(C3(O)CCN(C(=O)CC(N)=O)CC3)s2)c1 [Example 54A-25],–
< 100,Cc1cc(Nc2nccc(C(F)(F)F)n2)cc(-c2cnc(C3(O)CCN(C(=O)CC(C)O)CC3)s2)c1 (stereo not shown) [Example 54A-27],–

# Source: patent US8551984B2, “Aminopyrimidines as SYK inhibitors” (Merck Sharp & Dohme Corp., priority 2009, dated 2013)
